# Measurements as given in PMC4925161, “EssC: domain structures inform on the elusive translocation channel in the Type VII secretion system” (Biochemical Journal, 2016).
# What was measured:
# [1] = biological target: T1, EssC-C (Geobacillus thermodenitrificans, UniProt A4IKE7); assay: fluorescence titration (excitation […] nm, emission […] nm); assay type: binding; design: gene eccC; C-terminal fragment, residues 966-1479 (ATPase modules D2 and D3); N-terminal His6 tag removed with TEV; E. coli host
# [2] = biological target: T1, EssC-C; design: gene eccC; details: D2 nucleotide site; ATP modelled in the second molecule (mant density ambiguous, crystal grown with mant-ATP); also present in SeMet structure without added nucleotide; displaces mant-ATP
# [3] = biological target: the molecule itself; assay: native gel or EMSA; blue native PAGE, linear 4-12% gradient native Bis-Tris gels; 8 ug purified EssC-C or 5 ug full-length EssC (DDM-solubilized) loaded; band identity by peptide mass fingerprinting
molecule,measurement,setting,value
"CNc1ccccc1C(=O)O[C@H]1[C@@H](O)[C@H](n2cnc3c(N)ncnc32)O[C@@H]1CO[P@@](=O)(O)O[P@](=O)(O)OP(=O)(O)O (mixture of isomers) [mant-ATP, 2′/3′-(N-methyl-anthraniloyl)-adenosine-5′-triphosphate]",Kd,[1],940 ± 110 nM
Nc1ncnc2c1ncn2[C@@H]1O[C@H](COP(=O)(O)OP(=O)(O)OP(=O)(O)O)[C@@H](O)[C@H]1O [ATP],X-ray crystal structure (2.9 Å); displacement of mant-ATP fluorescence,[2],ATP was present in the nucleotide-binding site of the D2 module
"full-length membrane-bound EssC from Geobacillus thermodenitrificans NG80-2 (natural protein, UniProt A4IKE7 1-1479, looked up, also called full-length EssC; full-length recombinant protein; source: E. coli LEMO21(DE3), membranes solubilized with DDM, purified (His-Trap, SEC on Superdex 200 with 0.03% DDM)) MSQLWVLYETYCQLFSLTNEEKVIVIGNQLEHHVTVSSFSFRNGYIQIEKKSDGSTLAVLQGGRQIGELKPRCSITIDVDGQQMTIAWSGEEQRKYVYYVGQQSEVLVSNDPQADIETTNARFSLRKHRGQWVVIPDDDAPLFLNGVQLSDAVSLRNGDVLLCPYMQFVFIEEDLLAVTSSEEVVSSLTETMPPLSEMKKKYPMYRRTPRMIYELPSDKVSISFPSQEGDGDPRGLWLMVLPPVMMLLVIGAVALIQPRGVFIMISIAMFATTIVTSTAQYMREKKARQMRKEKRRRIYTNYLEQKREELQALSEKQRNVLYYHFPSFEQMKSFVMQVNSRIWERTAESADFLHVRIGTADVPATYEVSVSMGDLANREIDDLLEQAQHIAKVYQTVKHVPLPIDVSHGAIGMVGKRSIVNGEIEQLVGQIAFFHSYHDVRFVAIFSEDDYKHWEWMKWLPHFQLPNSFAKGLIYNEQTRDQLLSSIYEMLRERALDEEKDKKRFSPHFVFIVADRSLIAEHVILEYLEEKNEDIGISVIFASETKESLTENVHTLVQYINEREGEIVIQHRKAAHIPFQLDEHSTEGNESFARMLRSLNHQKGMSNSIPEKVTFLEMMQTRRANELQIVQNWLSCQTSRSLAVPIGLKGRNDVVELNLHEKAHGPHGLVAGTTGSGKSELLQTYILSLAVHFHPHEVAFLIIDYKGGGMAQPFKNMPHLLGTITNIHGSKNFSARALASINSELKKRQRLFDRYEVNHINDYMELYKQGKAEQPLPHLFLIADEFAELKSEEPDFIRELVSAARIGRSLGVHLILATQKPRGVIDEQIWSNARFRISLKMQDVNDSKEILRNGDAAAITVPGRAYLQVGNNEVYELFQSAWSGAPYVEEGVEAEDEIHIVTDLGLVPVSNVATDRKRSRQKPKTEIEMVVEQIIETQKQLNIEKLPSPWLPPLPPRLARPASVTAEANAFPIGLKDEPELQSQSDYFYQWLEDGNIGIFGSAGYGKSTTMMTLLLSFAGAYNPAQLHYYIFDFGNSALLPLRQLPHTADYFRLDDEKKIEKFIKFMKEEMEQRKQRFMEKEVSTIKLYNALSEEKLPIIIVALDNFDVVKEEMPDFETQLIQYARDGQSLGIFFIMTATRVSGIRPPLMNNLKTKIVHYFIDSSEKFSLIGRTPYDVDPIPGRALIKKDNAALTQIYLPADGEDDIEVLENVKREMERLKEVYQHIPKPKPIPMLPPRLSMSVFTNTYVQHRASGFIPVGLDEQTVRPVAINMRTDPHCLIVGQSRKGKTNVVKVILESLLVQEPESIGLLDGIDRGLAGYANRDDITYIEAKERLAQWLNEADAVLQQREREYIQAVNENRATTLAWPPVVFVVDSLLRLQQETDSIMQGRIANMMKQYSHLGFHVFVAGNANEFVKGFDALTAELKQIRQAILVTKKSEQSLFALPFTRNEQEIEPGFGYFVVGGKDQKIQIPKVE",stoichiometry N,[3],~6
